Measured values taken from patent publication US12528767B2, “HDAC6 inhibitors and uses thereof” (Eikonizo Therapeutics, Inc., priority 2019, dated 2026).
Where two headings read alike, the source gives them in different places.

Legend:
Full length Human HDAC6 = biological target: T1, Full length Human HDAC6 (Homo sapiens, UniProt Q9UBN7); conditions: for Selectivity (6 v 8) (fold): ratio of HDAC8 IC50/HDAC6 IC50
T1 sequence (Q9UBN7 1-1215): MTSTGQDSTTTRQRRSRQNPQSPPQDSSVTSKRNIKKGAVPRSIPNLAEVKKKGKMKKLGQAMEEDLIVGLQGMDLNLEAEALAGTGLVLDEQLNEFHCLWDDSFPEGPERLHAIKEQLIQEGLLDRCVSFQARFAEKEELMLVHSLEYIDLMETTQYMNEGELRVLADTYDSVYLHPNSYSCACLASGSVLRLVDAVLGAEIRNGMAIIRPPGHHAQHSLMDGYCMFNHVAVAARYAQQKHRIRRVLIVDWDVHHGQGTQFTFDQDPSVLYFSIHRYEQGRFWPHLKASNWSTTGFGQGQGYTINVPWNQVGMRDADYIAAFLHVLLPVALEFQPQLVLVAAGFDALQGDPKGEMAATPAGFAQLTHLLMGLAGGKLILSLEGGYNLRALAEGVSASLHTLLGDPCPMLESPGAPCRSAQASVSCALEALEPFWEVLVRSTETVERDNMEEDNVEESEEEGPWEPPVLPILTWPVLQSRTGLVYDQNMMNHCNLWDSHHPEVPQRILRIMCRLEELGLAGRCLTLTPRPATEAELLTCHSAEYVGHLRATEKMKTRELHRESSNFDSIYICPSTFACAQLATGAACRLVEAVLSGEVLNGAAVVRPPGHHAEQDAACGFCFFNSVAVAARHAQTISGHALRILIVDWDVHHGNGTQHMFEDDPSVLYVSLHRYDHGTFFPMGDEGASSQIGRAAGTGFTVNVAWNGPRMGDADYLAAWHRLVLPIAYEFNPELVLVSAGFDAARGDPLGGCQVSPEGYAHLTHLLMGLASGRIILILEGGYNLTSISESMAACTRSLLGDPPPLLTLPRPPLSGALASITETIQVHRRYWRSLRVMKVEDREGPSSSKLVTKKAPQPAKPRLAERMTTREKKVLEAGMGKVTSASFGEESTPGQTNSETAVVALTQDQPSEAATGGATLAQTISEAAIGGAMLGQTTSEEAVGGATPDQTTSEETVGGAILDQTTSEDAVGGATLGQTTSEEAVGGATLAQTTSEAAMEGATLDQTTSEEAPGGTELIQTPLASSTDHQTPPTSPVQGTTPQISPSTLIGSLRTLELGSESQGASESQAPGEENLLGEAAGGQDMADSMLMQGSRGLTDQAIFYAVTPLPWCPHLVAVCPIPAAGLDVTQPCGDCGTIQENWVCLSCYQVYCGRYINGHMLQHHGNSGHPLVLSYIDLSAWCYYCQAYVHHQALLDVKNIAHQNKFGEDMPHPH

Full length Human HDAC8 = biological target: T2, Full length Human HDAC8 (Homo sapiens, UniProt Q9BY41)
T2 sequence (Q9BY41 1-377): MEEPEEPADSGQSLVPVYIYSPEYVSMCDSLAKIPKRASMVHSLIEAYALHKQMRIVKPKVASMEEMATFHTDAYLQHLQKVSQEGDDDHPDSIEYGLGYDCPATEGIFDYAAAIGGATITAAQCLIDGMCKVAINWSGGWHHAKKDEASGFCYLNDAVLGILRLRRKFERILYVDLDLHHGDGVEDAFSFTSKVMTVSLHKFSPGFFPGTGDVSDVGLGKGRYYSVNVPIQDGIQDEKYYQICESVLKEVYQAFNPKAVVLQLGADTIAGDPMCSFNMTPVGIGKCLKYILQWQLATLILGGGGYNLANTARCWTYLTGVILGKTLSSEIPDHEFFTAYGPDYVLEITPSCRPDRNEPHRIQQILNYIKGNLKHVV

| SMILES | IC50 (Full length Human HDAC6) [nM] | Selectivity (6 v 8) (fold) (Full length Human HDAC6; Table 1, number) | Selectivity (6 v 8) (fold) (Full length Human HDAC6; Table 1, range class) | IC50 (Full length Human HDAC8) [nM] |
| --- | --- | --- | --- | --- |
| O=C(NO)c1ccc(CN2CC3(CCOCC3)C2)c(F)c1 [compound 71] | 1 to 100 | 33.4 | III (III: >10-100) | 1000 to 10000 |
| O=C(NO)c1ccc(CN2CCOCC2)c(F)c1 [compound 51] | 1 to 100 | 27.6 | III (III: >10-100) | 100 to 1000 |
| O=C(NO)c1ccc2c(c1F)CCN(CC13CC4CC(CC(C4)C1)C3)C2 [compound 21] | 100 to 1000 | 50.2 | III (III: >10-100) | 1000 to 10000 |
| O=C(NO)c1ccc(CN2CCC3(CC2)C2CC4CC(C2)CC3C4)c(F)c1 [compound 167, 3-fluoro-N-hydroxy-4-(((1r,3r,5r,7r)-spiro[adamantane-2,4′-piperidin]-1′-yl)methyl)benzamide] | 1 to 100 | 41.9 | III (III: >10-100) | 1000 to 10000 |
| O=C(NO)c1cc(F)c2c(c1)C[C@@H]1COCCN1C2 (single isomer, unassigned) [compound 129] | – | >2.9 | V (V: >1000) | – |
| CC[C@@H](c1ccccc1)N1CCc2cc(C(=O)NO)cc(F)c2C1 (single isomer, unassigned) [compound 31] | – | 468.8 | IV (IV: >100-1000) | – |
| CC1(C)C[C@@H]2Cc3cc(C(=O)NO)cc(F)c3CN2C1 (single isomer, unassigned) [compound 126] | – | 37.4 | III (III: >10-100) | – |
| O=C(NO)c1ccc2c(c1)CN1CCCC[C@H]1C2 (single isomer, unassigned) [compound 144] | – | 26.7 | III (III: >10-100) | – |
| O=C(NO)c1ccc2c(c1)CCN1CCC[C@@H]21 (single isomer, unassigned) [compound 149] | – | 6.5 | II (II: >1-10) | – |
| CN1Cc2cc(C(=O)NO)ccc2[C@H]2CCCN21 (single isomer, unassigned) [compound 161] | – | 2 | II (II: >1-10) | – |
| O=C(NO)c1ccc2c(c1)CN1CCC[C@H]21 (single isomer, unassigned) [compound 164] | – | 2.3 | II (II: >1-10) | – |
| CC[C@H]1CCCN1Cc1ccc(C(=O)NO)cc1F (single isomer, unassigned) [compound 49] | – | 15.4 | III (III: >10-100) | – |
| O=C(NO)c1cc(F)c2c(c1)C[C@H]1COCCN1C2 (single isomer, unassigned) [compound 130] | – | >2.8 | V (V: >1000) | – |
| O=C(NO)c1ccc2c(c1)CCN1CCCC[C@H]21 (single isomer, unassigned) [compound 90] | – | 3.6 | II (II: >1-10) | – |
| O=C(NO)c1ccc2c(c1)C[C@H]1CCCN1C2 (single isomer, unassigned) [compound 122] | – | 14.5 | III (III: >10-100) | – |
| CC[C@H](c1ccccc1)N1CCc2cc(C(=O)NO)cc(F)c2C1 (single isomer, unassigned) [compound 30] | – | 262.4 | IV (IV: >100-1000) | – |
